According to US20260138988A1, “Spiropyrrolidine Derived Antiviral Agents” (Enanta Pharmaceuticals, Inc., priority 2021, published 2026):

The compounds below were run against SARS-CoV-2 3CL-protease (Severe acute respiratory syndrome coronavirus 2, UniProt P0DTD1) (assay: SARS-CoV-2 3C-Like (3CL) Protease Fluorescence Assay (FRET)). Settings: SARS-CoV-2 3CL-protease 10 nM, test compounds 0-10 μM, duplicate, read-out: IC50.
Assay type: biochemical
With `C[C@H](NC(=O)c1cc(F)c(F)c(F)c1)C(=O)N(C)[C@@H](CC(C)(C)C)C(=O)N1C[C@]2(C[C@H]1C#N)C(=O)Nc1ccccc12` [Example 214] the IC50 was under 100 nM.
`C[C@H](NC(=O)c1cccc2cc(F)ccc12)C(=O)N(C)[C@@H](CC(C)(C)C)C(=O)N1C[C@]2(C[C@H]1C#N)C(=O)Nc1ccccc12` [Example 215] was tested, and the IC50 was under 100 nM.
Compound `C[C@H](NC(=O)c1ccc(OC2CC2)c(OC2CC2)c1)C(=O)N(C)[C@@H](CC(C)(C)C)C(=O)N1C[C@]2(C[C@H]1C#N)C(=O)Nc1ccccc12` [Example 216] has an IC50 of under 100 nM.
In the case of `CC(C)C[C@@H](C(=O)N1C[C@]2(C[C@H]1C#N)C(=O)Nc1ccccc12)N(C)C(=O)[C@H](C)NC(=O)C(C)C` [Example 217], the IC50 is reported as under 100 nM.
Compound `C[C@H](NC(=O)c1ccc(F)cc1)C(=O)N[C@@H](CC(C)(C)C)C(=O)N1C[C@]2(C[C@H]1C#N)C(=O)Nc1ccccc12` [Example 218] has an IC50 of under 100 nM.
In the case of `C[C@H](NC(=O)C(C)(C)C)C(=O)N[C@@H](CC(C)(C)C)C(=O)N1C[C@]2(C[C@H]1C#N)C(=O)Nc1ccccc12` [Example 219], the IC50 is reported as under 100 nM.
In the case of `C[C@H](NC(=O)c1cc(F)c2nn(C3CC3)cc2c1)C(=O)N(C)[C@@H](CC(C)(C)C)C(=O)N1C[C@]2(C[C@H]1C#N)C(=O)Nc1ccccc12` [Example 220], the IC50 is reported as under 100 nM.
`C[C@H](NC(=O)c1cnn(-c2ccc(C(F)(F)F)cc2)c1)C(=O)N(C)[C@@H](CC(C)(C)C)C(=O)N1C[C@]2(C[C@H]1C#N)C(=O)Nc1ccccc12` [Example 221] gave an IC50 of under 100 nM.
For `C[C@H](NC(=O)C(F)(F)F)C(=O)N[C@@H](CC(C)(C)C)C(=O)N1C[C@]2(C[C@H]1C#N)C(=O)Nc1ccccc12` [Example 222], the IC50 was under 100 nM.
Compound `CC(C)C(=O)N[C@@H](C)C(=O)N[C@@H](CC(C)(C)C)C(=O)N1C[C@]2(C[C@H]1C#N)C(=O)Nc1ccccc12` [Example 223] has an IC50 of under 100 nM.
With `C[C@H](NC(=O)c1ccc(F)cc1)C(=O)N(C)[C@@H](CC(C)(C)C)C(=O)N1C[C@]2(C[C@H]1C#N)C(=O)Nc1ccccc12` [Example 224] the IC50 was under 100 nM.
`CC(C)(C)C[C@H](NC(=O)c1ccc(F)cc1)C(=O)N[C@@H](CC(C)(C)C)C(=O)N1C[C@]2(C[C@H]1C#N)C(=O)Nc1ccccc12` [Example 225] showed an IC50 of under 100 nM.
Compound `CC(C)(C)C[C@H](NC(=O)C(F)(F)F)C(=O)N[C@@H](CC(C)(C)C)C(=O)N1C[C@]2(C[C@H]1C#N)C(=O)Nc1ccccc12` [Example 226] has an IC50 of under 100 nM.
With `C[C@H](NC(=O)OCc1ccccc1)C(=O)N[C@@H](CC(C)(C)C)C(=O)N1C[C@]2(C[C@H]1C#N)C(=O)Nc1ccccc12` [Example 227] the IC50 was under 100 nM.
For `CN(C(=O)[C@@H]1CC[C@@H](C2CC2)N1)[C@@H](CC(C)(C)C)C(=O)N1C[C@]2(C[C@H]1C#N)C(=O)Nc1ccccc12` [Example 228], the IC50 was under 100 nM.
In the case of `CN(C(=O)[C@@H]1C[C@@H](C(F)(F)F)CN1)[C@@H](CC(C)(C)C)C(=O)N1C[C@]2(C[C@H]1C#N)C(=O)Nc1ccccc12` [Example 229], the IC50 is reported as under 100 nM.
`CN1C[C@H](C(F)(F)F)C[C@H]1C(=O)N(C)[C@@H](CC(C)(C)C)C(=O)N1C[C@]2(C[C@H]1C#N)C(=O)Nc1ccccc12` [Example 230] was tested, and the IC50 was 100 to 1000 nM.
`CN(C(=O)[C@@H]1C[C@H](c2ccccc2)CN1)[C@@H](CC(C)(C)C)C(=O)N1C[C@]2(C[C@H]1C#N)C(=O)Nc1ccccc12` [Example 231] gave an IC50 of under 100 nM.
For `CN(C(=O)[C@@H]1C[C@@H](c2ccccc2)CN1)[C@@H](CC(C)(C)C)C(=O)N1C[C@]2(C[C@H]1C#N)C(=O)Nc1ccccc12` [Example 232], the IC50 was under 100 nM.
Work on `CN(C(=O)[C@@H]1CC[C@@H](C(F)(F)F)N1)[C@@H](CC(C)(C)C)C(=O)N1C[C@]2(C[C@H]1C#N)C(=O)Nc1ccccc12` [Example 233] yielded an IC50 of under 100 nM.
`CN(C(=O)[C@@H]1CC[C@H](C(F)(F)F)N1C)[C@@H](CC(C)(C)C)C(=O)N1C[C@]2(C[C@H]1C#N)C(=O)Nc1ccccc12` [Example 234] showed an IC50 of under 100 nM.
`CC(C)N1[C@H](C(=O)N(C)[C@@H](CC(C)(C)C)C(=O)N2C[C@]3(C[C@H]2C#N)C(=O)Nc2ccccc23)CC[C@@H]1C(F)(F)F` [Example 235] showed an IC50 of 100 to 1000 nM.
